# Measurements reported in patent publication US9873709B2 (priority 2013, dated 2018).
# System: JAK1-dependent STAT6 phosphorylation downstream of IL-13 stimulation in TF-1 human erythroleukemia cells
# Experiment: cells
# Details: TF-1, read-out: IL-13-pSTAT6 IC50
row,Structure (SMILES),IC50 [nM]
1,"CN1CCCCC1C1CCCN1C(=O)c1ccc(Nc2nc3c(N4CCC(O)(c5ccc(Cl)cc5)CC4)cccn3n2)cc1 (stereo not drawn) [Example 1-52, [4-[[8-[4-(4-chlorophenyl)-4-hydroxy-1-piperidyl]-[1,2,4]triazolo[1,5-a]pyridin-2-yl]amino]phenyl]-[2-(1-methyl-2-piperidyl)pyrrolidin-1-yl]methanone]",21.1
2,"CC(=O)N1CC2(C1)CN(C(=O)c1ccc(Nc3nc4c(N5CCC(O)(c6ccc(Cl)cc6)CC5)cccn4n3)cc1)C2 [Example 1-53, 1-[2-[4-[[8-[4-(4-chlorophenyl)-4-hydroxy-1-piperidyl]-[1,2,4]triazolo[1,5-a]pyridin-2-yl]amino]benzoyl]-2,6-diazaspiro[3.3]heptan-6-yl]ethanone]",27.4
3,"O=C(c1ccc(Nc2nc3c(N4CCC(O)(c5ccc(Cl)cc5)CC4)cccn3n2)cc1)N1CCN(C2CC2)CC1 [Example 1-54, [4-[[8-[4-(4-chlorophenyl)-4-hydroxy-1-piperidyl]-[1,2,4]triazolo[1,5-a]pyridin-2-yl]amino]phenyl]-(4-cyclopropylpiperazin-1-yl)methanone]",100
4,"CN1CCC2(C1)CN(C(=O)c1ccc(Nc3nc4c(N5CCC(O)(c6ccc(Cl)cc6)CC5)cccn4n3)cc1)C2 [Example 1-59, [4-[[8-[4-(4-chlorophenyl)-4-hydroxy-1-piperidyl]-[1,2,4]triazolo[1,5-a]pyridin-2-yl]amino]phenyl]-(7-methyl-2,7-diazaspiro[3.4]octan-2-yl)methanone]",15.5
5,"CN1CCCC12CN(C(=O)c1ccc(Nc3nc4c(N5CCC(O)(c6ccc(Cl)cc6)CC5)cccn4n3)cc1)C2 [Example 1-60, [4-[[8-[4-(4-chlorophenyl)-4-hydroxy-1-piperidyl]-[1,2,4]triazolo[1,5-a]pyridin-2-yl]amino]phenyl]-(5-methyl-2,5-diazaspiro[3.4]octan-2-yl)methanone]",12.2
6,"CN1CCC(NC(=O)c2ccc(Nc3nc4c(N5CCC(O)(c6ccc(Cl)cc6)CC5)cccn4n3)cc2)C1 (stereo not drawn) [Example 1-62, 4-[[8-[4-(4-chlorophenyl)-4-hydroxy-1-piperidyl]-[1,2,4]triazolo[1,5-a]pyridin-2-yl]amino]-N-(1-methylpyrrolidin-3-yl)benzamide]",22.8
7,"CN(C)C(=O)C1(c2ccncc2)CCCN1C(=O)c1ccc(Nc2nc3c(N4CCC(O)(c5ccc(Cl)cc5)CC4)cccn3n2)cc1 (stereo not drawn) [Example 1-74, 1-[4-[[8-[4-(4-chlorophenyl)-4-hydroxy-1-piperidyl]-[1,2,4]triazolo[1,5-a]-pyridin-2-yl]amino]benzoyl]-N,N-dimethyl-2-(4-pyridyl)pyrrolidine-2-carboxamide]",33.5
8,"CN1C[C@@H]2CCN(C(=O)c3ccc(Nc4nc5c(N6CCC(O)(c7ccc(Cl)cc7)CC6)cccn5n4)cc3)[C@@H]2C1 [Example 1-76, [(3aS,6aS)-5-methyl-2,3,3a,4,6,6a-hexahydropyrrolo[2,3-c]pyrrol-1-yl]-[4-[[8-[4-(4-chlorophenyl)-4-hydroxy-1-piperidyl]-[1,2,4]triazolo[1,5-a]pyridin-2-yl]amino]phenyl] methanone]",12.7
9,"CN1CCC2(CC1)CN(C(=O)c1ccc(Nc3nc4c(N5CCC(O)(c6ccc(Cl)cc6)CC5)cccn4n3)cc1)C2 [Example 1-81, [4-[[8-[4-(4-chlorophenyl)-4-hydroxy-1-piperidyl]-[1,2,4]triazolo[1,5-a]pyridin-2-yl]amino]phenyl]-(7-methyl-2,7-diazaspiro[3.5]nonan-2-yl)methanone]",10.9
10,"O=C(N[C@H]1CN2CCC1CC2)c1ccc(Nc2nc3c(N4CCC(O)(c5ccc(Cl)cc5)CC4)cccn3n2)cc1 [Example 1-89, 4-[[8-[4-(4-chlorophenyl)-4-hydroxy-1-piperidyl]-[1,2,4]triazolo[1,5-a]pyridin-2-yl]amino]-N-[(3R)-quinuclidin-3-yl]benzamide]",127
11,"CN1CCN(CCCNC(=O)c2ccc(Nc3nc4c(N5CCC(O)(c6ccc(Cl)cc6)CC5)cccn4n3)cc2)CC1 [Example 1-96, 4-[[8-[4-(4-chlorophenyl)-4-hydroxy-1-piperidyl]-[1,2,4]triazolo[1,5-a]pyridin-2-yl]amino]-N-[3-(4-methylpiperazin-1-yl)propyl]benzamide]",64.6
12,"CN1CCN(CCNC(=O)c2ccc(Nc3nc4c(N5CCC(O)(c6ccc(Cl)cc6)CC5)cccn4n3)cc2)CC1 [Example 1-97, 4-[[8-[4-(4-chlorophenyl)-4-hydroxy-1-piperidyl]-[1,2,4]triazolo[1,5-a]pyridin-2-yl]amino]-N-[2-(4-methylpiperazin-1-yl)ethyl]benzamide]",25
13,"CN(Cc1ccncc1)C(=O)c1ccc(Nc2nc3c(N4CCC(O)(c5ccc(Cl)cc5)CC4)cccn3n2)cc1 [Example 1-111, 4-[[8-[4-(4-chlorophenyl)-4-hydroxy-1-piperidyl]-[1,2,4]triazolo[1,5-a]pyridin-2-yl]amino]-N-methyl-N-(4-pyridylmethyl)benzamide]",15.6
14,"O=C(c1ccc(Nc2nc3c(N4CCC(O)(c5ccc(Cl)cc5)CC4)cccn3n2)cc1)N1CCCN(c2ccncc2)CC1 [Example 1-114, [4-[[8-[4-(4-chlorophenyl)-4-hydroxy-1-piperidyl]-[1,2,4]triazolo[1,5-a]pyridin-2-yl]amino]phenyl]-[4-(4-pyridyl)-1,4-diazepan-1-yl]methanone]",29.7
15,"O=C(c1ccc(Nc2nc3c(N4CCC(O)(c5ccc(Cl)cc5)CC4)cccn3n2)cc1)N1CCN(CCn2ccnc2)CC1 [Example 1-116, [4-[[8-[4-(4-chlorophenyl)-4-hydroxy-1-piperidyl]-[1,2,4]triazolo[1,5-a]pyridin-2-yl]amino]phenyl]-[4-(2-imidazol-1-ylethyl)piperazin-1-yl]methanone]",34
16,"O=C(c1ccc(Nc2nc3c(N4CCC(O)(c5ccc(Cl)cc5)CC4)cccn3n2)cc1)N1CCCCC1Cc1ccccn1 (stereo not drawn) [Example 1-121, [4-[[8-[4-(4-chlorophenyl)-4-hydroxy-1-piperidyl]-[1,2,4]triazolo[1,5-a]pyridin-2-yl]amino]phenyl]-[2-(2-pyridylmethyl)-1-piperidyl]methanone]",131
17,"CNC(=O)C1CN(C)CCN1C(=O)c1ccc(Nc2nc3c(N4CCC(O)(c5ccc(Cl)cc5)CC4)cccn3n2)cc1 (stereo not drawn) [Example 1-152, 1-[4-[[8-[4-(4-chlorophenyl)-4-hydroxy-1-piperidyl]-[1,2,4]triazolo[1,5-a]pyridin-2-yl]amino]benzoyl]-N,4-dimethyl-piperazine-2-carboxamide]",65
18,"CN1CCN(C(=O)C2CN(C(=O)c3ccc(Nc4nc5c(N6CCC(O)(c7ccc(Cl)cc7)CC6)cccn5n4)cc3)C2)CC1 [Example 1-165, [4-[[8-[4-(4-chlorophenyl)-4-hydroxy-1-piperidyl]-[1,2,4]triazolo[1,5-a]pyridin-2-yl]amino]phenyl]-[3-(4-methylpiperazine-1-carbonyl)azetidin-1-yl]methanone]",25.1

# Further lines, results first:
row,IC50 [nM],Structure (SMILES)
1,21.3,"CN(C)C1CCN(C(=O)c2ccc(Nc3nc4c(N5CCC(O)(c6ccc(Cl)cc6)CC5)cccn4n3)cc2)CC1 [Example 1-86, [4-[[8-[4-(4-chlorophenyl)-4-hydroxy-1-piperidyl]-[1,2,4]triazolo[1,5-a]pyridin-2-yl]amino]phenyl]-[4-(dimethylamino)-1-piperidyl]methanone]"
2,59.3,"CN1CC(NC(=O)c2ccc(Nc3nc4c(N5CCC(O)(c6ccc(Cl)cc6)CC5)cccn4n3)cc2)C1 [Example 1-92, 4-[[8-[4-(4-chlorophenyl)-4-hydroxy-1-piperidyl]-[1,2,4]triazolo[1,5-a]pyridin-2-yl]amino]-N-(1-methylazetidin-3-yl)benzamide]"
3,115,"O=C(NCCN1CCC(O)CC1)c1ccc(Nc2nc3c(N4CCC(O)(c5ccc(Cl)cc5)CC4)cccn3n2)cc1 [Example 1-95, 4-[[8-[4-(4-chlorophenyl)-4-hydroxy-1-piperidyl]-[1,2,4]triazolo[1,5-a]pyridin-2-yl]amino]-N-[2-(4-hydroxy-1-piperidyl)ethyl] benzamide]"
4,14,"O=C(NCCN1CCOCC1)c1ccc(Nc2nc3c(N4CCC(O)(c5ccc(Cl)cc5)CC4)cccn3n2)cc1 [Example 1-101, 4-[[8-[4-(4-chlorophenyl)-4-hydroxy-1-piperidyl]-[1,2,4]triazolo[1,5-a]pyridin-2-yl]amino]-N-(2-morpholinoethyl)benzamide]"
5,23.8,"CN1CCCCC1CNC(=O)c1ccc(Nc2nc3c(N4CCC(O)(c5ccc(Cl)cc5)CC4)cccn3n2)cc1 (stereo not drawn) [Example 1-103, 4-[[8-[4-(4-chlorophenyl)-4-hydroxy-1-piperidyl]-[1,2,4]triazolo[1,5-a]pyridin-2-yl]amino]-N-[(1-methyl-2-piperidyl)methyl]benzamide]"
6,14.1,"CN1CCC(NC(=O)c2ccc(Nc3nc4c(N5CCC(O)(c6ccc(Cl)cc6)CC5)cccn4n3)cc2)CC1 [Example 1-105, 4-[[8-[4-(4-chlorophenyl)-4-hydroxy-1-piperidyl]-[1,2,4]triazolo[1,5-a]pyridin-2-yl]amino]-N-(1-methyl-4-piperidyl)benzamide]"
7,26.7,"CN1CCN(C(=O)C2CCN(C(=O)c3ccc(Nc4nc5c(N6CCC(O)(c7ccc(Cl)cc7)CC6)cccn5n4)cc3)CC2)CC1 [Example 1-113, [4-[[8-[4-(4-chlorophenyl)-4-hydroxy-1-piperidyl]-[1,2,4]triazolo[1,5-a]pyridin-2-yl]amino]phenyl]-[4-(4-methylpiperazine-1-carbonyl)-1-piperidyl]methanone]"
8,57.9,"CN1CCCC(CNC(=O)c2ccc(Nc3nc4c(N5CCC(O)(c6ccc(Cl)cc6)CC5)cccn4n3)cc2)C1 (stereo not drawn) [Example 1-141, 4-[[8-[4-(4-chlorophenyl)-4-hydroxy-1-piperidyl]-[1,2,4]triazolo[1,5-a]pyridin-2-yl]amino]-N-[(1-methyl-3-piperidyl)methyl]benzamide]"
9,10.8,"CN(C)C(=O)C1CN(C(=O)c2ccc(Nc3nc4c(N5CCC(O)(c6ccc(Cl)cc6)CC5)cccn4n3)cc2)C1 [Example 1-164, 1-[4-[[8-[4-(4-chlorophenyl)-4-hydroxy-1-piperidyl]-[1,2,4]triazolo[1,5-a]pyridin-2-yl]amino]benzoyl]-N,N-dimethyl-azetidine-3-carboxamide]"
